Experimental data published in the NIST ThermoML archive (doi:10.1016/j.jct.2011.01.016).

Columns and labels:
[1] = 101.33 kPa, Liquid; for viscosity: Concentric cylinders viscometry; for mass density: Vibrating tube method
[2] = xn = mol fraction of the nth substance listed; conditions: 100 kPa, Liquid; for viscosity: Concentric cylinders viscometry; for mass density: Vibrating tube method

CCCCCCCCCCCCCC[P+](CCCCCC)(CCCCCC)CCCCCC.[Br-] [tetradecyltrihexylphosphonium bromide]
[1]
Conditions	mass density [kg/m3]	viscosity [mPa·s]
278.15 K	967.5	16955
283.15 K	964.4	10457
288.15 K	961.3	6688.3
293.15 K	958.2	4421.3
298.15 K	955.2	2988.4
303.15 K	952.1	2065.2
308.15 K	949	1456.3
313.15 K	946	1046.7
318.15 K	942.9	764.04
323.15 K	939.8	568.06
328.15 K	936.7	428.98
333.15 K	933.7	328.56
338.15 K	930.7	255.03
343.15 K	927.6	200.46
348.15 K	924.6	159.44
353.15 K	921.7	128.21
358.15 K	918.7	104.15
363.15 K	915.7	85.44

CCCCCCCCCCCCCC[P+](CCCCCC)(CCCCCC)CCCCCC.[Br-] [tetradecyltrihexylphosphonium bromide] + O
[2], x2 = 0.68
Conditions	mass density [kg/m3]	viscosity [mPa·s]
298.15 K	957	238.84
303.15 K	953.6	180.54
308.15 K	950.3	138.77
313.15 K	946.9	108.27
318.15 K	943.6	85.71
323.15 K	940.2	68.71
328.15 K	936.9	55.74
333.15 K	933.5	45.71
338.15 K	930.2	37.91
343.15 K	926.8	31.74
348.15 K	923.5	26.82
353.15 K	920.1	22.85
358.15 K	916.7	19.62
363.15 K	913.4	16.94

CCCCCCCCCCCCCC[P+](CCCCCC)(CCCCCC)CCCCCC.[Cl-] [trihexyl(tetradecyl)phosphonium chloride]
[1]
Conditions	mass density [kg/m3]	viscosity [mPa·s]
278.15 K	901.6	15339
283.15 K	898.6	9447.7
288.15 K	895.7	6088.5
293.15 K	892.8	4030.4
298.15 K	889.9	2729.1
303.15 K	887	1890.3
308.15 K	884	1336.4
313.15 K	881.1	962.5
318.15 K	878.2	705.75
323.15 K	875.3	525.98
328.15 K	872.3	398.19
333.15 K	869.5	305.73
338.15 K	866.6	237.78
343.15 K	863.7	187.39
348.15 K	860.8	149.21
353.15 K	858	120.11
358.15 K	855.1	97.66
363.15 K	852.3	80.17

CCCCCCCCCCCCCC[P+](CCCCCC)(CCCCCC)CCCCCC.[Cl-] [trihexyl(tetradecyl)phosphonium chloride] + O
[2], x2 = 0.818
Conditions	mass density [kg/m3]	viscosity [mPa·s]
298.15 K	901.6	134.72
303.15 K	898.3	103.12
308.15 K	895	80.2
313.15 K	891.7	63.3
318.15 K	888.4	50.65
323.15 K	885.1	41.05
328.15 K	881.8	33.64
333.15 K	878.5	27.88
338.15 K	875.2	23.33
343.15 K	871.9	19.71
348.15 K	868.6	16.79
353.15 K	865.3	14.4
358.15 K	862	12.44
363.15 K	858.6	10.81

CCCCCCCCCC(=O)[O-].CCCCCCCCCCCCCC[P+](CCCCCC)(CCCCCC)CCCCCC [trihexyltetradecylphosphonium decanoate]
[1]
Conditions	mass density [kg/m3]	viscosity [mPa·s]
278.15 K	893.2	1915.7
283.15 K	890	1292.9
288.15 K	886.9	902.16
293.15 K	883.7	644.41
298.15 K	880.6	471.51
303.15 K	877.5	352.09
308.15 K	874.4	267.73
313.15 K	871.3	207.27
318.15 K	868.3	163
323.15 K	865.3	130.01
328.15 K	862.2	104.89
333.15 K	859.2	85.75
338.15 K	856.2	70.93
343.15 K	853.2	59.27
348.15 K	850.2	49.99
353.15 K	847.3	42.54
358.15 K	844.3	36.46
363.15 K	841.3	31.47

CCCCCCCCCCCCCC[P+](CCCCCC)(CCCCCC)CCCCCC.CS(=O)(=O)[O-] [trihexyltetradecylphosphonium methanesulfonate]
[1]
Conditions	mass density [kg/m3]	viscosity [mPa·s]
278.15 K	940.5	7526.5
283.15 K	937.4	4689.7
288.15 K	934.3	3040.4
293.15 K	931.2	2022.2
298.15 K	928.1	1379.4
303.15 K	925.1	962.83
308.15 K	922	686.13
313.15 K	918.9	498.53
318.15 K	915.9	369.02
323.15 K	912.9	277.77
328.15 K	909.9	212.37
333.15 K	907	164.79
338.15 K	904.1	129.63
343.15 K	901.2	103.34
348.15 K	898.3	83.37
353.15 K	895.3	68.01
358.15 K	892.4	56.06
363.15 K	889.4	46.65
